The target of the experiment is T1, human PDE5 (Homo sapiens, UniProt O76074).
T1 construct: from tissue; host or cells: platelets from fresh blood of human donors (lysate, 10,000 g supernatant)
As to the kind of experiment: Inhibition of the type 5 phosphodiesterase (PDE5) activity, modified SPA test with platelet lysate. Format: biochemical. The settings on record: PDE5 from human platelet lysate, 0.5 μM cGMP. The method, boiled down:
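Human platelet lysate (10,000 g supernatant) as PDE5 source in SPA with 0.5 μM cGMP plus [3H]cGMP tracer, pH 7.4, 5 mM Mg2+, 1 μM motapizone and 10 nM PDE2 inhibitor; 10–20% conversion. 5 min preincubation, 15 min at 37 °C, stopped with SPA beads/IBMX. IC50 by non-linear regression.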
As usually defined, the IC50 is the concentration that inhibits the measured activity by half. A higher IC50 goes with lower potency. As for `O=C(NCC1CCCN(C(=O)CO)C1)c1c[nH]c2c(-c3c(OCC4CC4)ccc4c3OCO4)ncnc12` (centres unmarked) [Example 189, 4-(5-Cyclopropylmethoxy-benzo[1,3]dioxol-4-yl)-5H-pyrrolo[3,2-d]pyrimidine-7-carboxylic acid [1-(2-hydroxy-acetyl)piperidin-3-ylmethyl]-amide], the IC50 was 389 pM. This lies in the sub-nanomolar range. Consider `COc1cc(OCC2CC2)c(-c2ncnc3c(C(=O)N[C@@H]4CCCN(C(C)=O)C4)c[nH]c23)cc1F` [Example 113, 4-(2-Cyclopropylmethoxy-5-fluoro-4-methoxy-phenyl)-5H-pyrrolo[3,2-d]pyrimidine-7-carboxylic acid ((R)-1-acetyl-piperidin-3-yl)-amide], for which 200 pM corresponded to half-maximal inhibition (IC50). Consider `O=C(N[C@@H]1CCN(C(=O)C2(O)CC2)C1)c1c[nH]c2c(-c3c(OCC4CC4)ccc4c3OCO4)ncnc12` [Example 182, 4-(5-Cyclopropylmethoxy-benzo[1,3]dioxol-4-yl)-5H-pyrrolo[3,2-d]pyrimidine-7-carboxylic acid {(R)-1-[1-(1-hydroxy-cyclopropyl)-methanoyl]-pyrrolidin-3-yl}-amide], for which the IC50 is 479 pM.

Compound `COCC(=O)N[C@H]1CC[C@@H](NC(=O)c2c[nH]c3c(-c4ccc(F)cc4OCC4CC4)ncnc23)CC1` [Example 76, cis-4-(2-Cyclopropylmethoxy-4-fluoro-phenyl)-5H-pyrrolo[3,2-d]pyrimidine-7-carboxylic acid [4-(2-methoxy-acetylamino)-cyclohexyl]-amide] showed an IC50 of 2400 pM. On to `CCOC(=O)N1CC[C@@H](NC(=O)c2c[nH]c3c(-c4c(OCC5CC5)ccc5c4OCO5)ncnc23)C1` [Example 17, (R)-3-({1-[4-(5-Cyclopropylmethoxy-benzo[1,3]dioxol-4-yl)-5H-pyrrolo[3,2-d]pyrimidin-7-yl]-methanoyl}-amino)-pyrrolidine-1-carboxylic acid ethyl ester], for which the IC50 is 339 pM. The compound `CCCOc1ccc2c(c1-c1ncnc3c(C(=O)NC4CCN(C(=O)CC)CC4)c[nH]c13)OCO2` [Example 139, 4-(5-Propoxy-benzo[1,3]dioxol-4-yl)-5H-pyrrolo[3,2-d]pyrimidine-7-carboxylic acid (1-propionyl-piperidin-4-yl)-amide] showed an IC50 of 204 pM. Take `O=C(N[C@H]1CC[C@@H](NC(=O)C2CC2)CC1)c1c[nH]c2c(-c3c(OCC4CC4)ccc4c3OCO4)ncnc12` [Example 8, cis-4-(5-Cyclopropylmethoxy-benzo[1,3]dioxol-4-yl)-5H-pyrrolo[3,2-d]pyrimidine-7-carboxylic acid {4-[(1-cyclopropyl-methanoyl)-amino]-cyclohexyl}-amide]: 224 pM corresponded to half-maximal inhibition (IC50).

For `COCC(=O)N1CCC(NC(=O)c2c[nH]c3c(-c4cc(C)ccc4OCC4CC4)ncnc23)CC1` [Example 124, 4-(2-Cyclopropylmethoxy-5-methyl-phenyl)-5H-pyrrolo[3,2-d]pyrimidine-7-carboxylic acid [1-(2-methoxy-acetyl)piperidin-4-yl]-amide], half-maximal inhibition (IC50) required 2190 pM. Compared with the last compound, the IC50 is about 9.8-fold higher. Same read-out and setting: the value for `O=C(NC1CCN(C(=O)C2CC2)CC1)c1c[nH]c2c(-c3ccccc3OCC3CC3)ncnc12` [Example 96, 4-(2-Cyclopropylmethoxy-phenyl)-5H-pyrrolo[3,2-d]pyrimidine-7-carboxylic acid (1-cyclopropanecarbonyl-piperidin-4-yl)-amide] was 2140 pM; that for `COCC(=O)N1CC[C@H](NC(=O)c2c[nH]c3c(-c4c(OCC5CC5)ccc5c4OCO5)ncnc23)C1` [Example 21, 4-(5-Cyclopropylmethoxy-benzo[1,3]dioxol-4-yl)-5H-pyrrolo[3,2-d]pyrimidine-7-carboxylic acid [(S)-1-(2-methoxy-ethanoyl)-pyrrolidin-3-yl]amide] was 1820 pM. Take `CC(=O)N1CCC(NC(=O)c2c[nH]c3c(-c4cc(C)ccc4OCC4CC4)ncnc23)CC1` [Example 123, 4-(2-Cyclopropylmethoxy-5-methyl-phenyl)-5H-pyrrolo[3,2-d]pyrimidine-7-carboxylic acid (1-acetyl-piperidin-4-yl)-amide]: the IC50 is 1820 pM. `CCCCOc1ccc2c(c1-c1ncnc3c(C(=O)NC4CCN(C=O)CC4)c[nH]c13)OCO2` [Example 146, 4-(5-Butoxy-benzo[1,3]dioxol-4-yl)-5H-pyrrolo[3,2-d]pyrimidine-7-carboxylic acid (1-formyl-piperidin-4-yl)-amide] gave an IC50 of 229 pM. The compound `COCC(=O)N1CCC(NC(=O)c2c[nH]c3c(-c4cc(OC)c(F)cc4OCC4CC4)ncnc23)CC1` [Example 98, 4-(2-Cyclopropylmethoxy-4-fluoro-5-methoxy-phenyl)-5H-pyrrolo[3,2-d]pyrimidine-7-carboxylic acid [1-(2-methoxy-ethanoyl)-piperidin-4-yl]-amide] had an IC50 of 219 pM.

`O=C(N[C@H]1CC[C@H](NC(=O)C2CC2)CC1)c1c[nH]c2c(-c3c(OCC4CC4)ccc4c3OCO4)ncnc12` [Example 5, trans-4-(5-Cyclopropylmethoxy-benzo[1,3]dioxol-4-yl)-5H-pyrrolo[3,2-d]pyrimidine-7-carboxylic acid {4-[(1-cyclopropyl-methanoyl)-amino]-cyclohexyl}-amide] had an IC50 of 123 pM. The same measure, in the same setting: the value for `COc1ccc(OCC2CC2)c(-c2ncnc3c(C(=O)N[C@H]4CC[C@H](NC(=O)C5(O)CC5)CC4)c[nH]c23)c1` [Example 210, trans-4-(2-Cyclopropylmethoxy-5-methoxy-phenyl)-5H-pyrrolo[3,2-d]pyrimidine-7-carboxylic acid {4-[(1-hydroxy-cyclopropanecarbonyl)-amino]-cyclohexyl}-amide] was 646 pM. The compound `COCCOc1cc(OC)ccc1-c1ncnc2c(C(=O)N[C@H]3CC[C@H](NC(=O)[C@H](C)O)CC3)c[nH]c12` [Example 256, trans-4-[4-Methoxy-2-(2-methoxy-ethoxy)-phenyl]-5H-pyrrolo[3,2-d]pyrimidine-7-carboxylic acid [4-((S)-2-hydroxy-propionylamino)-cyclohexyl]-amide] showed an IC50 of 12000 pM.

`COCCOc1cc(OC)ccc1-c1ncnc2c(C(=O)N[C@H]3CC[C@@H](NC(C)=O)CC3)c[nH]c12` [Example 152, cis-4-[4-Methoxy-2-(2-methoxy-ethoxy)-phenyl]-5H-pyrrolo[3,2-d]pyrimidine-7-carboxylic acid (4-acetylamino-cyclohexyl)-amide] gave an IC50 of 14500 pM. Take “4-(2-Cyclopropylmethoxy-4-fluoro-5-methoxy-phenyl)-5H-pyrrolo[3,2-d]pyrimidine-7-carboxylic acid ((R)-1-acetyl-pyrrolidin-3-yl)-amide [Example 103]”: the “-log IC50 (mol/l)” value is 9.33.

On to `CCC(=O)N1CCC[C@H](NC(=O)c2c[nH]c3c(-c4cc(F)c(OC)cc4OCC4CC4)ncnc23)C1` [Example 114, 4-(2-Cyclopropylmethoxy-5-fluoro-4-methoxy-phenyl)-5H-pyrrolo[3,2-d]pyrimidine-7-carboxylic acid ((S)-1-propionyl-piperidin-3-yl)-amide], for which the IC50 is 2240 pM. As for `COCC(=O)N[C@H]1CC[C@@H](NC(=O)c2c[nH]c3c(-c4c(OCC5CC5)ccc5c4OCO5)ncnc23)CC1` [Example 9, cis-4-(5-Cyclopropylmethoxy-benzo[1,3]dioxol-4-yl)-5H-pyrrolo[3,2-d]pyrimidine-7-carboxylic acid [4-(2-methoxy-ethanoylamino)-cyclohexyl]-amide], the IC50 was 1150 pM.

Values taken from patent US8445501B2, “Substituted 7-carboxamido-pyrrolo[3,2-d]pyrimidines” (Takeda GmbH, priority 2008, dated 2013).
